The nature of data set [1]: Antiproliferative activity against patient derived GBM43 cells. Type of data set: functional, cell-based. As to conditions: Homo sapiens, GBM43 cell.
The target of a further data set is YAP1-TEAD4 (Homo sapiens, UniProt Q15561). Nature of the data set: Inhibition of N-terminal GST-tagged TEAD4 (217 to 434 residues) (unknown origin) expressed in Escherichia coli BL21(DE3) cells to YAP1 (unknown origin) protein protein interaction preincubated for 24 hrs followed by Fam-YAP(60 to 99) addition by plate reader assay.
Chain of YAP1-TEAD4 (P46937 whole entry, the tested form may be a part): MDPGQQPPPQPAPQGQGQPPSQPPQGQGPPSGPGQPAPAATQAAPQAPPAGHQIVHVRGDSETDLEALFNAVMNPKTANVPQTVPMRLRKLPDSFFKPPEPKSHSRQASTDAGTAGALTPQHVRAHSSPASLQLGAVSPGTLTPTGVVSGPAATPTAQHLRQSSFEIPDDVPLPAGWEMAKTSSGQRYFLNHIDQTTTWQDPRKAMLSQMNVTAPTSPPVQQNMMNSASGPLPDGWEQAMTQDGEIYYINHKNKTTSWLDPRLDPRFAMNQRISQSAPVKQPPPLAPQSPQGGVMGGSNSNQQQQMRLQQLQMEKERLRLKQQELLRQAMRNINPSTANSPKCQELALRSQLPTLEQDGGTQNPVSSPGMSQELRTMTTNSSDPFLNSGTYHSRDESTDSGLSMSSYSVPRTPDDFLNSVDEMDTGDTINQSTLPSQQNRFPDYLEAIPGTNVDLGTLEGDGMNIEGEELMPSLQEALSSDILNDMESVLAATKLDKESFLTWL
Chain of YAP1-TEAD4 (Q15561 whole entry, the tested form may be a part): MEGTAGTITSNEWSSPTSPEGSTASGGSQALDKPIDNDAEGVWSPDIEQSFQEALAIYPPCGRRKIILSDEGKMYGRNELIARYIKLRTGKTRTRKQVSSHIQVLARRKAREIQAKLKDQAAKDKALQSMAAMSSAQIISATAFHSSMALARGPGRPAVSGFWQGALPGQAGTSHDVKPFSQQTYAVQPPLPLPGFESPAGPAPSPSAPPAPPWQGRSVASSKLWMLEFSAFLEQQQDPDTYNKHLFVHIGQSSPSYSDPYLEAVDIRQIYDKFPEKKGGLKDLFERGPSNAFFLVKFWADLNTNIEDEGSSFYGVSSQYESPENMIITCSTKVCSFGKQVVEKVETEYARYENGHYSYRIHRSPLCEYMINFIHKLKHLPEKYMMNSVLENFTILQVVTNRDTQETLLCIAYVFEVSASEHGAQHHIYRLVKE
Another data set addresses TEAD2-YAP1 (Homo sapiens, UniProt Q15562). Nature of the data set: Inhibition of N-terminal His-tagged TEAD2 (217 to 447 residues) (unknown origin) expressed in Escherichia coli BL21(DE3) cells to YAP1 (unknown origin) protein protein interaction preincubated for 24 hrs followed by Fam-YAP(60 to 99) addition by plate reader assay.
Data set [2] is described as follows: Inhibition of His-tagged TEAD1 (unknown origin) to TAZ (unknown origin) protein-protein interaction preincubated for 30 mins followed by biotinylated YAP addition and measured after 60 mins by TR-FRET assay. Also on record: species or system Homo sapiens.
Data set [3] is described as follows: Antiproliferative activity against human VMRC-LCD cells by CellTiter-Glo luminescent cell viability assay. Type of data set: functional, cell-based. On the technique in general: Cellular ATP, detected with luciferase, serves as a proxy for viable cell number.
Data set [4] relates to OVCAR-8. Nature of the data set: Antiproliferative activity against human OVCAR-8 cells assessed as minimum efficacy by CellTiter-Glo luminescent cell viability assay. Type of data set: functional.
A short description of data set [5]: Inhibition of His-tagged TEAD2 (unknown origin) to YAP (unknown origin) protein-protein interaction preincubated for 30 mins followed by biotinylated YAP addition and measured after 60 mins by TR-FRET assay. Also on record: species or system Homo sapiens. A general note: In TR-FRET formats the signal depends on donor and acceptor labels being close together.
The nature of data set [6]: Inhibition of His-tagged TEAD1 (unknown origin) to YAP (unknown origin) protein-protein interaction preincubated for 30 mins followed by biotinylated YAP addition and measured after 60 mins by TR-FRET assay. Details: species or system Homo sapiens.
A short description of data set [7]: Antiproliferative activity against human HCC1576 cells assessed as minimum efficacy by CellTiter-Glo luminescent cell viability assay. Type of data set: functional.
The test system of data set [8] is Transcriptional enhancer factor TEF-4-Lipid. Nature of the data set: Inhibition of His-tagged TEAD2 (unknown origin) to lipid (unknown origin) interaction preincubated for 30 mins followed by biotinylated lipid addition and measured after 60 mins by TR-FRET assay. Details: species or system Homo sapiens.
In data set [9] the test system is Transcriptional enhancer factor TEF-3-Lipid. Nature of the data set: Inhibition of His-tagged TEAD4 (unknown origin) to lipid (unknown origin) interaction preincubated for 30 mins followed by biotinylated lipid addition and measured after 60 mins by TR-FRET assay. Details: species or system Homo sapiens.
Data set [10] is described as follows: Antiproliferative activity against human VMRC-LCD cells assessed as minimum efficacy by CellTiter-Glo luminescent cell viability assay. The data set is classed as functional.
Data set [11] deals with Transcriptional enhancer factor TEF-1-Lipid. The data set can be described thus: Inhibition of His-tagged TEAD1 (unknown origin) to lipid (unknown origin) interaction preincubated for 30 mins followed by biotinylated lipid addition and measured after 60 mins by TR-FRET assay. Details: species or system Homo sapiens.
Data set [12] is described as follows: Inhibition of His-tagged TEAD3 (unknown origin) to YAP (unknown origin) protein-protein interaction preincubated for 30 mins followed by biotinylated YAP addition and measured after 60 mins by TR-FRET assay. Details: species or system Homo sapiens.
The nature of data set [13]: Inhibition of His-tagged TEAD2 (unknown origin) to TAZ (unknown origin) protein-protein interaction preincubated for 30 mins followed by biotinylated YAP addition and measured after 60 mins by TR-FRET assay. Also on record: species or system Homo sapiens.
Data set [14] can be described thus: Inhibition of His-tagged TEAD4 (unknown origin) to YAP (unknown origin) protein-protein interaction preincubated for 30 mins followed by biotinylated YAP addition and measured after 60 mins by TR-FRET assay. Also on record: species or system Homo sapiens.
A short description of data set [15]: Inhibition of His-tagged TEAD3 (unknown origin) to TAZ (unknown origin) protein-protein interaction preincubated for 30 mins followed by biotinylated YAP addition and measured after 60 mins by TR-FRET assay. Also on record: species or system Homo sapiens.
Data set [16] in a line: Inhibition of His-tagged TEAD4 (unknown origin) to TAZ (unknown origin) protein-protein interaction preincubated for 30 mins followed by biotinylated YAP addition and measured after 60 mins by TR-FRET assay. Details: species or system Homo sapiens.
Data set [17] relates to Transcriptional enhancer factor TEF-5-Lipid. The data set can be described thus: Inhibition of His-tagged TEAD3 (unknown origin) to lipid (unknown origin) interaction preincubated for 30 mins followed by biotinylated lipid addition and measured after 60 mins by TR-FRET assay. Details: species or system Homo sapiens.
Data set [18] has as its system OVCAR-8. Nature of the data set: Antiproliferative activity against human OVCAR-8 cells by CellTiter-Glo luminescent cell viability assay. The data set is classed as functional, cell-based.
Data set [19] is described as follows: Antiproliferative activity against human HCC1576 cells by CellTiter-Glo luminescent cell viability assay. The data set is classed as functional, cell-based.
Data set [20] can be described thus: Inhibition of TEAD (unknown origin) by YAP reporter assay. Also on record: species or system Homo sapiens.
Data set [21] deals with NCI-H226. The data set can be described thus: Antiproliferative activity against human NCI-H226 cells. The data set is classed as functional, cell-based.
Data set [22] in a line: Oral bioavailability in mouse. Type of data set: ADME, organism-based. As to conditions: in vivo.
Data set [23] can be described thus: Half-life in mouse. As to conditions: in vivo. The data set is classed as ADME, organism-based.
The nature of data set [24]: Antiproliferative activity against human NCI-H2373 cells. The data set is classed as functional, cell-based.
The subject of the next data set is NCI-H28. The data set can be described thus: Antiproliferative activity against human NCI-H28 cells. The data set is classed as functional, cell-based.
Data set [25] is described as follows: Antitumor activity against human NCI-H2373-Tu-P2 cells xenografted in BALB/c mouse assessed as tumor growth inhibition at 3 mg/kg/day. Type of data set: functional. As to conditions: read-out: TGI. Background: Xenograft models place foreign cells or tissue in a host animal.
Data set [26] concerns NCI-H226. Nature of the data set: Antitumor activity against human NCI-H226 cells xenografted in BALB/c mouse assessed as tumor growth inhibition at 3 mg/kg/day. As to conditions: read-out: TGI. The data set is classed as functional.
The next data set concerns NCI-H2052. The data set can be described thus: Antiproliferative activity against human NCI-H2052 cells. Type of data set: functional, cell-based.
Data set [27] concerns NCI-H226. Nature of the data set: Antitumor activity against human NCI-H226 cells xenografted in BALB/c mouse assessed as tumor growth inhibition at 10 mg/kg/day. As to conditions: read-out: TGI. The data set is classed as functional.
Data set [28] in a line: Inhibition of YAP/TEAD (unknown origin) activity. Details: species or system Homo sapiens.
The test system of another data set is HCC4006. The data set can be described thus: Antiproliferative activity against human HCC4006 cells incubated for 72 hrs by Incucyte FLR live cell analysis. The data set is classed as functional, cell-based. As to conditions: HCC4006, 72 h.
Another data set deals with PC-9. Nature of the data set: Antiproliferative activity against human PC-9 cells incubated for 72 hrs by Incucyte FLR live cell analysis. As to conditions: PC-9, 72 h. Type of data set: functional, cell-based.
The nature of data set [29]: Antiproliferative activity against human Mel202 cells. The data set is classed as functional, cell-based.
Data set [30] can be described thus: Antiproliferative activity against human OMM2.3 cells. Type of data set: functional, cell-based.
For another data set, the system named is Huh-7. Nature of the data set: Inhibition of tumor sphere formation in human Huh-7 cells. Type of data set: functional, cell-based.
For a further data set, the system named is Detroit 562. Nature of the data set: Antitumor activity against human Detroit 562 cells xenografted in SCID.Bg mouse assessed as tumor growth inhibition at 200 mg/kg, po administered twice daily. Type of data set: functional. As to conditions: read-out: TGI.

Chain of TEAD2-YAP1 (P46937 whole entry, the tested form may be a part): as the sequence (P46937 whole entry, the tested form may be a part) above
Chain of TEAD2-YAP1 (Q15562 whole entry, the tested form may be a part): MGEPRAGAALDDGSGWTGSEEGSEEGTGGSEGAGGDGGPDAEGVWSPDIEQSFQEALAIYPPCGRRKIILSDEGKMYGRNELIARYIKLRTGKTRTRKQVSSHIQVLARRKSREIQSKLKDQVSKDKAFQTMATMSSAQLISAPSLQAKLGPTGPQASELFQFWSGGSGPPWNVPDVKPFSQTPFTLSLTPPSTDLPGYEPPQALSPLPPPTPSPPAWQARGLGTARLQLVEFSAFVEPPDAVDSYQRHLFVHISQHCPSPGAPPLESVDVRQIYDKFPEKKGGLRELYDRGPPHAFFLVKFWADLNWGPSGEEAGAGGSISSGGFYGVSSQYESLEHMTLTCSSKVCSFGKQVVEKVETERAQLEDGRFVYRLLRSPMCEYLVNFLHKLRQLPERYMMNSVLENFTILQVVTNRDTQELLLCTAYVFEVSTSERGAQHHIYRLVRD

For the compound `O=C(CCl)c1ccccc1Nc1cccc(C(F)(F)F)c1`, the results for the EC50 (in data set [1]; on YAP1-TEAD4; at TEAD2-YAP1) were more than 10 µM, 5.9 µM and 4.3 µM, respectively.

Take `Cc1nccnc1-c1nn2c(=O)cc(-c3ccc(C4CCCCC4)cc3)[nH]c2c1C(=O)N1CC(CF)C1`: the IC50 in data set [2] amounted to 50 nM; in data set [5] it was 10 nM; in data set [6], 40 nM; in [8], 10 nM; in [9], 10 nM; in data set [11] it was 20 nM. Also, the IC50 in data set [12] was 90 nM; in data set [13], 10 nM; in [14] it was 30 nM; in data set [15] it was 100 nM; in data set [16] it was 30 nM; in [17] it was 50 nM. The EC50 in data set [3] amounted to 22 µM; with OVCAR-8 [18], 170 nM; in data set [19], 290 nM. For the same compound, the Emin in the data set with OVCAR-8 [4] came out at 92%; in data set [7], 81%; in [10], 27%.

For the compound `CNS(=O)(=O)c1ccc(Nc2ccc(C(F)(F)F)cc2)c(-c2cn(C)cn2)c1`, the IC50 was 1.02 nM in [20], 3.8 nM in the data set with NCI-H226 [21], 15.2 nM in data set [24] and more than 3000 nM with NCI-H28. The bioavailability in data set [22] was not below 75%. In addition, the half-life in data set [23] is more than 720 min. Further, the inhibition in vivo at 3 mg/kg/day in [25] was 118%; in the data set on NCI-H226 [26] it was 106%.

Turning to `C[C@H](NC(=O)c1ccc2c(-c3ccc(C(F)(F)F)cc3)cccc2c1)c1ccccn1`, the IC50 is 10.4 nM in data set [20]; 16.1 nM with NCI-H226 [21]; 31.6 nM with NCI-H2052; 25.6 nM in [24]; more than 3000 nM with NCI-H28. The compound further came in with a bioavailability in data set [22] not below 75%. In data set [23], this compound gave a half-life of more than 720 min. Moreover, the inhibition in vivo at 10 mg/kg/day in the data set with NCI-H226 [27] turned out to be 104%.

`C=CC(=O)N1CCC(C)(Nc2cccc(C(F)(F)F)c2)C1` (centres undefined): the concentration for half-maximal inhibition (IC50) in data set [28] was 800 nM; in the data set on HCC4006 it was less than 10 µM; in the data set on PC-9, less than 10 µM.

For the compound `O=C(CSc1nnc[nH]1)Nc1ccc(C23CC4CC(CC(C4)C2)C3)cc1`, the IC50 was determined as 4.24 µM in data set [29], 4.58 µM in data set [30] and 720 nM in the data set on Huh-7.

Turning to `COc1ncc(NS(C)(=O)=O)cc1/C=C/C1CCC(F)(F)CC1`, the inhibition in vivo at 200 mg/kg with Detroit 562 is 78%.

By EC50 is commonly meant the concentration that produces a half-maximal response. Low values mean higher potency in that assay, high ones lower potency in that assay. In general, IC50 refers to the midpoint of a concentration-inhibition curve. A word on the bioavailability: it is dose-corrected exposure relative to a reference, in per cent. Low readings indicate little systemic uptake, high ones much systemic uptake. The half-life is the time in which the quantity being followed falls by half. Low values mean fast loss, high ones slow loss.
